Experimental data reported in patent publication US20200354426A1 (MEDIMMUNE LIMITED, priority 2016, published 2020).
“And” between values parts separate entries of the source, which are not always exact repeats. Equal entries are not always repeated. Numbered stars: 1 amine (or outer) side, 2 acyl side, 3 side chain; on linkers, the order of the positions; unused ones are H or OH. Side chains are listed from the residue outwards. Peptide text beside a SMILES is read from it. * marks the point of attachment. γGlu = O=C(O)[C@H](CCC(=O)[*:2])N[*:1]; Palmitoyl = CCCCCCCCCCCCCCCC(=O)*; Ahx = NCCCCCC(=O)O

How the values were obtained:
Test in all cases: cAMP activity assay in assay medium (assay 1)
Format in all cases: cell-based
Human GLP1R = Human GLP1R (Homo sapiens, UniProt P43220); set-up: expressed in transfected cells; conditions: assay medium; Table 4; read-out: hGLP1R EC50
Excerpt: (§1) Biological Activity of Peptides in Cell-Based cAMP Activity Assay (Assay 1):
(§2) All sample dilutions were made in duplicate.

Human GlucR = target: T1, Human GlucR (Homo sapiens, UniProt P47871); conditions: assay medium; Table 4; read-out: hGlucR EC50
T1 construct: expressed in transfected cells
Excerpt: as §1, §2

Human GIPr = target: T2, Human GIPr (Homo sapiens, UniProt P48546); conditions: assay medium; Table 4; read-out: hGIPR EC50
T2 construct: expressed in transfected cells
T2 sequence (P48546 22-466): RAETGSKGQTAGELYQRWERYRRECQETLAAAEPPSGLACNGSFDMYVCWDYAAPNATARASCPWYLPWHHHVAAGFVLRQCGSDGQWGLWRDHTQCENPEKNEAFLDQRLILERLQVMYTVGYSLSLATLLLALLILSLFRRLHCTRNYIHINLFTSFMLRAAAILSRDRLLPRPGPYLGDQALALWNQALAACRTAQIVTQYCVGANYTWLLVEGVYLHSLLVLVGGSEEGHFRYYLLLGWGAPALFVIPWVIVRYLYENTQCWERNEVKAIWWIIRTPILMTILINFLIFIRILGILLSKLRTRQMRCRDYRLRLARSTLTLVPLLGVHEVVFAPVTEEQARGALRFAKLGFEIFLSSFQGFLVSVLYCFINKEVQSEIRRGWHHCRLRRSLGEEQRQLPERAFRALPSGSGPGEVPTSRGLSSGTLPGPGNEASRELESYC
Excerpt: as §1, §2

Sequence of Human GLP1R (P43220 24-463): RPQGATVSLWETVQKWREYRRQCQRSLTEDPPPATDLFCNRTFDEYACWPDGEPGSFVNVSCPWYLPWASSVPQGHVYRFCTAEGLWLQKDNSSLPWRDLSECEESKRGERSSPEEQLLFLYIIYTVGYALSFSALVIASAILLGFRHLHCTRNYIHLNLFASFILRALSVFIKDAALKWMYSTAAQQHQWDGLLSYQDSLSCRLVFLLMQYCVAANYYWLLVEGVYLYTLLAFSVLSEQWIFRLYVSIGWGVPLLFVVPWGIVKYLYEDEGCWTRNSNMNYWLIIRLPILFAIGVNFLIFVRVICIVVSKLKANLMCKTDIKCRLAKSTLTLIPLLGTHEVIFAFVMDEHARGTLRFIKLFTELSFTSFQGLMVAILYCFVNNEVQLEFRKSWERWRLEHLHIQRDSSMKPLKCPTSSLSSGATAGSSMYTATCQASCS
T1 sequence (P47871 26-477): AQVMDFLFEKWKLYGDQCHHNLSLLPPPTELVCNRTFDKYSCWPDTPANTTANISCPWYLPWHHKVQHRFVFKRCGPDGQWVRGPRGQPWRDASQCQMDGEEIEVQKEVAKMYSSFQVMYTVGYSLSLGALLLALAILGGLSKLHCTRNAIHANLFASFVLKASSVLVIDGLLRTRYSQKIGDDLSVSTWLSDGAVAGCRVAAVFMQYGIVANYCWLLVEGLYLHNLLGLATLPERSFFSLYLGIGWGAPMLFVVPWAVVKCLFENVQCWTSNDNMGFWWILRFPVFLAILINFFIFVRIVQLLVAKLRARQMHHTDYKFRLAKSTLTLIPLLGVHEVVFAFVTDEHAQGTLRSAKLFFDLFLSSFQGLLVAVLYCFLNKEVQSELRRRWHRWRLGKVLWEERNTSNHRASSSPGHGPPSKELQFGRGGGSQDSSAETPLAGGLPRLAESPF

EC50 (Human GLP1R) [nM] | EC50 (Human GlucR) [nM] | EC50 (Human GIPr) | SMILES
0.0666 | 0.00547 | 124 nM and 82.8 nM | CCCCCCCCCCCCCCCC(=O)N[C@@H](CCC(=O)NCCCC[C@H](NC(=O)[C@H](CO)NC(=O)[C@H](CC(=O)O)NC(=O)[C@H](CC(C)C)NC(=O)[C@H](Cc1ccc(O)cc1)NC(=O)[C@H](CCCCN)NC(=O)[C@H](CO)NC(=O)[C@H](Cc1ccc(O)cc1)NC(=O)[C@H](CC(=O)O)NC(=O)[C@H](CO)NC(=O)[C@@H](NC(=O)[C@H](Cc1ccccc1)NC(=O)[C@@H](NC(=O)CNC(=O)[C@H](CCC(N)=O)NC(=O)[C@H](CO)NC(=O)[C@@H](N)Cc1c[nH]cn1)[C@@H](C)O)[C@@H](C)O)C(=O)N[C@@H](CCCNC(=N)N)C(=O)N[C@@H](C)C(=O)N[C@@H](CCC(N)=O)C(=O)N[C@@H](CC(=O)O)C(=O)N[C@@H](Cc1ccccc1)C(=O)N[C@H](C(=O)N[C@@H](CCC(=O)O)C(=O)N[C@@H](Cc1c[nH]c2ccccc12)C(=O)N[C@@H](CC(C)C)C(=O)N[C@H](C(=O)N[C@@H](C)C(=O)NCC(=O)NCC(N)=O)C(C)C)C(C)C)C(=O)O [g600] (H-HSQGTFTSDYSKYLDSK([γGlu-Palmitoyl])RAQDFVEWLVAGG-NH2; N-terminus assumed)
0.244 | 82.1 | 82.1 nM | CCCCCCCCCCCCCCCC(=O)N[C@@H](CCC(=O)NCCCC[C@H](NC(=O)[C@H](CO)NC(=O)[C@H](CC(=O)O)NC(=O)[C@H](CC(C)C)NC(=O)[C@H](Cc1ccc(O)cc1)NC(=O)[C@H](CCCCN)NC(=O)[C@H](CO)NC(=O)[C@H](Cc1ccc(O)cc1)NC(=O)[C@H](CC(=O)O)NC(=O)[C@H](CO)NC(=O)[C@@H](NC(=O)[C@H](Cc1ccccc1)NC(=O)[C@@H](NC(=O)CNC(=O)[C@H](CCC(=O)O)NC(=O)[C@H](CO)NC(=O)[C@@H](N)Cc1c[nH]cn1)[C@@H](C)O)[C@@H](C)O)C(=O)N[C@@H](CCCNC(=N)N)C(=O)N[C@@H](C)C(=O)N[C@@H](CCC(=O)O)C(=O)N[C@@H](CC(=O)O)C(=O)N[C@@H](Cc1ccccc1)C(=O)N[C@H](C(=O)N[C@@H](CCC(=O)O)C(=O)N[C@@H](Cc1c[nH]c2ccccc12)C(=O)N[C@@H](CC(C)C)C(=O)N[C@H](C(=O)N[C@@H](C)C(=O)NCC(=O)NCC(N)=O)C(C)C)C(C)C)C(=O)O [g639] (H-HSEGTFTSDYSKYLDSK([γGlu-Palmitoyl])RAEDFVEWLVAGG-NH2; N-terminus assumed)
1.06 | 1.52 | 332 nM | CCCCCCCCCCCCCCCC(=O)N[C@@H](CCC(=O)NCCCC[C@H](NC(=O)[C@H](CO)NC(=O)[C@H](CC(=O)O)NC(=O)[C@H](CC(C)C)NC(=O)[C@H](Cc1ccc(O)cc1)NC(=O)[C@H](CCCCN)NC(=O)[C@H](CO)NC(=O)[C@H](Cc1ccc(O)cc1)NC(=O)[C@H](CC(=O)O)NC(=O)[C@H](CO)NC(=O)[C@@H](NC(=O)[C@H](Cc1ccccc1)NC(=O)[C@@H](NC(=O)CNC(=O)[C@H](CCC(N)=O)NC(=O)CNC(=O)[C@@H](N)Cc1c[nH]cn1)[C@@H](C)O)[C@@H](C)O)C(=O)N[C@@H](CCCNC(=N)N)C(=O)N[C@@H](C)C(=O)N[C@@H](CCCNC(=N)N)C(=O)N[C@@H](CC(=O)O)C(=O)N[C@@H](Cc1ccccc1)C(=O)N[C@H](C(=O)N[C@@H](CCC(=O)O)C(=O)N[C@@H](Cc1c[nH]c2ccccc12)C(=O)N[C@@H](CC(C)C)C(=O)N[C@H](C(=O)N[C@@H](C)C(=O)NCC(=O)NCC(N)=O)C(C)C)C(C)C)C(=O)O [g660] (H-HGQGTFTSDYSKYLDSK([γGlu-Palmitoyl])RARDFVEWLVAGG-NH2; N-terminus assumed)

Further lines, the molecule ahead of its results:

SMILES | EC50 (Human GLP1R) [nM] | EC50 (Human GlucR) [nM] | EC50 (Human GIPr)
CCCCCCCCCCCCCCCC(=O)N[C@@H](CCC(=O)NCCCC[C@H](NC(=O)[C@H](CO)NC(=O)[C@H](CC(=O)O)NC(=O)[C@H](CC(C)C)NC(=O)[C@H](Cc1ccc(O)cc1)NC(=O)[C@H](CCCCN)NC(=O)[C@H](CO)NC(=O)[C@H](Cc1ccc(O)cc1)NC(=O)[C@H](CC(=O)O)NC(=O)[C@H](CO)NC(=O)[C@@H](NC(=O)[C@H](Cc1ccccc1)NC(=O)[C@@H](NC(=O)CNC(=O)[C@H](CCC(N)=O)NC(=O)C(C)(C)NC(=O)[C@@H](N)Cc1c[nH]cn1)[C@@H](C)O)[C@@H](C)O)C(=O)N[C@@H](CCCNC(=N)N)C(=O)N[C@@H](C)C(=O)N[C@@H](CCC(N)=O)C(=O)N[C@@H](CC(=O)O)C(=O)N[C@@H](Cc1ccccc1)C(=O)N[C@H](C(=O)N[C@@H](CCC(N)=O)C(=O)N[C@@H](Cc1c[nH]c2ccccc12)C(=O)N[C@@H](CC(C)C)C(=O)N[C@H](C(=O)N[C@@H](C)C(=O)NCC(=O)NCC(N)=O)C(C)C)C(C)C)C(=O)O [g384] | 0.0272 | 0.0429 | 17 nM
CCCCCCCCCCCCCCCC(=O)N[C@@H](CCC(=O)NCCCC[C@H](NC(=O)[C@H](CO)NC(=O)[C@H](CC(=O)O)NC(=O)[C@H](CC(C)C)NC(=O)[C@H](Cc1ccc(O)cc1)NC(=O)[C@H](CCCCN)NC(=O)[C@H](CO)NC(=O)[C@H](Cc1ccc(O)cc1)NC(=O)[C@H](CC(=O)O)NC(=O)[C@H](CO)NC(=O)[C@@H](NC(=O)[C@H](Cc1ccccc1)NC(=O)[C@@H](NC(=O)CNC(=O)[C@H](CCC(N)=O)NC(=O)CNC(=O)[C@@H](N)Cc1c[nH]cn1)[C@@H](C)O)[C@@H](C)O)C(=O)N[C@@H](CCCNC(=N)N)C(=O)N[C@@H](C)C(=O)N[C@@H](CCC(N)=O)C(=O)N[C@@H](CC(=O)O)C(=O)N[C@@H](Cc1ccccc1)C(=O)N[C@H](C(=O)N[C@@H](CCC(N)=O)C(=O)N[C@@H](Cc1c[nH]c2ccccc12)C(=O)N[C@@H](CC(C)C)C(=O)N[C@@H](CCC(=O)O)C(=O)N[C@@H](C)C(=O)NCC(=O)NCC(N)=O)C(C)C)C(=O)O [g512] | 0.098 | 0.0606 | 407 nM
CCCCCCCCCCCCCCCC(=O)N[C@@H](CCC(=O)NCCCC[C@H](NC(=O)[C@H](CO)NC(=O)[C@H](CC(=O)O)NC(=O)[C@H](CC(C)C)NC(=O)[C@H](Cc1ccc(O)cc1)NC(=O)[C@H](CCCCN)NC(=O)[C@H](CO)NC(=O)[C@H](Cc1ccc(O)cc1)NC(=O)[C@H](CC(=O)O)NC(=O)[C@H](CO)NC(=O)[C@@H](NC(=O)[C@H](Cc1ccccc1)NC(=O)[C@@H](NC(=O)CNC(=O)[C@H](CCC(=O)O)NC(=O)[C@H](CO)NC(=O)[C@@H](N)Cc1c[nH]cn1)[C@@H](C)O)[C@@H](C)O)C(=O)N[C@@H](CCCNC(=N)N)C(=O)N[C@@H](C)C(=O)N[C@@H](CCC(N)=O)C(=O)N[C@@H](CC(=O)O)C(=O)N[C@@H](Cc1ccccc1)C(=O)N[C@H](C(=O)N[C@@H](CCC(N)=O)C(=O)N[C@@H](Cc1c[nH]c2ccccc12)C(=O)N[C@@H](CC(C)C)C(=O)N[C@@H](CCC(=O)O)C(=O)N[C@@H](C)C(=O)NCC(=O)NCC(N)=O)C(C)C)C(=O)O [g513] (H-HSEGTFTSDYSKYLDSK([γGlu-Palmitoyl])RAQDFVQWLEAGG-NH2; N-terminus assumed) | 0.175 | 0.723 | 298 nM
CCCCCCCCCCCCCCCC(=O)N[C@@H](CCC(=O)NCCCC[C@H](NC(=O)[C@H](CO)NC(=O)[C@H](CC(=O)O)NC(=O)[C@H](CC(C)C)NC(=O)[C@H](Cc1ccc(O)cc1)NC(=O)[C@H](CCCCN)NC(=O)[C@H](CO)NC(=O)[C@H](Cc1ccc(O)cc1)NC(=O)[C@H](CC(=O)O)NC(=O)[C@H](CO)NC(=O)[C@@H](NC(=O)[C@H](Cc1ccccc1)NC(=O)[C@@H](NC(=O)CNC(=O)[C@H](CCC(N)=O)NC(=O)CNC(=O)[C@@H](N)Cc1c[nH]cn1)[C@@H](C)O)[C@@H](C)O)C(=O)N[C@@H](CCCNC(=N)N)C(=O)N[C@@H](C)C(=O)N[C@@H](CCC(N)=O)C(=O)N[C@@H](CC(=O)O)C(=O)N[C@@H](Cc1ccccc1)C(=O)N[C@H](C(=O)N[C@@H](CCC(N)=O)C(=O)N[C@@H](Cc1c[nH]c2ccccc12)C(=O)N[C@@H](CC(C)C)C(=O)N[C@@H](CCC(=O)O)C(=O)N[C@@H](CCCNC(=N)N)C(=O)NCC(=O)NCC(N)=O)C(C)C)C(=O)O [g588] | 0.11 | 0.0723 | 98 nM
CCCCCCCCCCCCCCCC(=O)NCCCCCC(=O)NCCCC[C@H](NC(=O)[C@H](CO)NC(=O)[C@H](CC(=O)O)NC(=O)[C@H](CC(C)C)NC(=O)[C@H](Cc1ccc(O)cc1)NC(=O)[C@H](CCC(=O)O)NC(=O)[C@H](CO)NC(=O)[C@H](Cc1ccc(O)cc1)NC(=O)[C@H](CC(=O)O)NC(=O)[C@H](CO)NC(=O)[C@@H](NC(=O)[C@H](Cc1ccccc1)NC(=O)[C@@H](NC(=O)CNC(=O)[C@H](CCC(N)=O)NC(=O)[C@H](CO)NC(=O)[C@@H](N)Cc1c[nH]cn1)[C@@H](C)O)[C@@H](C)O)C(=O)N[C@@H](CCCNC(=N)N)C(=O)N[C@@H](C)C(=O)N[C@@H](CCC(N)=O)C(=O)N[C@@H](CC(=O)O)C(=O)N[C@@H](Cc1ccccc1)C(=O)N[C@H](C(=O)N[C@@H](CCC(N)=O)C(=O)N[C@@H](Cc1c[nH]c2ccccc12)C(=O)N[C@@H](CC(C)C)C(=O)N[C@@H](CCC(=O)O)C(=O)N[C@@H](CCCNC(=N)N)C(=O)NCC(=O)NCC(N)=O)C(C)C [g614] (H-HSQGTFTSDYSEYLDSK([Ahx-Palmitoyl])RAQDFVQWLERGG-NH2; N-terminus assumed) | 0.00931 | 0.00365 | 99.3 nM
